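Cells were grown in 96-well plates and exposed to each compound for 48 hours at five concentrations; endpoints were interpolated linearly between bracketing concentrations, or set to the highest concentration if not reached. The concentration for 50% growth inhibition is given as GI50. At the TGI there is no net growth.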
Legend:
Test in all cases: NCI anticancer screen, dose series, 48 h
OVCAR-5 ovarian = tested on: OVCAR-5 ovarian
HCC-2998 colon = tested on: HCC-2998 colon
U251 CNS = tested on: U251 CNS
RPMI-8226 leukemia = tested on: RPMI-8226 leukemia
KM12 colon = tested on: KM12 colon
IGROV1 ovarian = tested on: IGROV1 ovarian
OVCAR-8 ovarian = tested on: OVCAR-8 ovarian
A549 NSCLC = tested on: A549 NSCLC
BT-549 breast = tested on: BT-549 breast
HOP-92 NSCLC = tested on: HOP-92 NSCLC

Structure (SMILES)	GI50 (OVCAR-5 ovarian)	TGI (OVCAR-5 ovarian)	GI50 (HCC-2998 colon)	TGI (HCC-2998 colon)	GI50 (U251 CNS)	TGI (U251 CNS)	GI50 (RPMI-8226 leukemia)	TGI (RPMI-8226 leukemia)	GI50 (KM12 colon)	TGI (KM12 colon)	GI50 (IGROV1 ovarian)	TGI (IGROV1 ovarian)	GI50 (OVCAR-8 ovarian)	TGI (OVCAR-8 ovarian)	GI50 (A549 NSCLC)	TGI (A549 NSCLC)	GI50 (BT-549 breast)	TGI (BT-549 breast)	GI50 (HOP-92 NSCLC)	TGI (HOP-92 NSCLC)
Clc1nc(Cl)nc(Nc2cccc3ccccc23)n1	> 100 µM	> 100 µM	> 100 µM	> 100 µM	> 100 µM	> 100 µM	39.8 µM	> 100 µM	93.7 µM	> 100 µM	> 100 µM	> 100 µM	> 100 µM	> 100 µM	> 100 µM	> 100 µM	–	–	–	–
COc1ccc(Cn2c(N)c(S(=O)(=O)c3ccc(Cl)cc3)c3nc(C#N)c(C#N)nc32)cc1	12.2 µM	> 50 µM	–	–	10.1 µM	30.3 µM	22.5 µM	> 50 µM	28 µM	> 50 µM	21.6 µM	> 50 µM	7.55 µM	> 50 µM	18.2 µM	> 50 µM	34.3 µM	> 50 µM	11.1 µM	> 50 µM
COc1ccc(-c2nnc(N3CCN(C(=O)CN4CCN(c5ccccc5)CC4)CC3)nc2-c2ccc(OC)cc2)cc1	> 100 µM	> 100 µM	–	–	4.14 µM	> 100 µM	2.06 µM	5.16 µM	3.67 µM	> 100 µM	11.1 µM	> 100 µM	7.15 µM	> 100 µM	4.85 µM	> 100 µM	–	–	3.49 µM	24 µM
C[Si](C)(C)/C(Br)=C\CCN1C(=O)CCC1=O	–	> 100 µM	–	> 100 µM	–	> 100 µM	–	–	–	> 100 µM	–	> 100 µM	–	> 100 µM	–	> 100 µM	–	–	–	> 100 µM
Oc1ccc2ccccc2c1N=Nc1ccc(Br)cc1	–	> 100 µM	–	–	–	> 100 µM	–	> 100 µM	–	> 100 µM	–	> 100 µM	–	> 100 µM	–	> 100 µM	–	> 100 µM	–	> 100 µM
CC(C(=O)O)c1cccc(Oc2ccccc2)c1 (stereo unspecified)	> 100 µM	> 100 µM	> 100 µM	> 100 µM	> 100 µM	> 100 µM	> 100 µM	> 100 µM	> 100 µM	> 100 µM	> 100 µM	> 100 µM	> 100 µM	> 100 µM	> 100 µM	> 100 µM	> 100 µM	> 100 µM	–	–
CC(C)(C)[Si](C)(C)OC1C(=O)C[C@H]2CCCC[C@@H]12 (stereo partly specified)	–	> 100 µM	–	> 100 µM	–	> 100 µM	–	> 100 µM	–	> 100 µM	–	> 100 µM	–	> 100 µM	–	> 100 µM	–	–	–	> 100 µM
Oc1ccc(Nc2c3ccccc3nc3occ(Cl)c23)cc1	19 µM	> 100 µM	–	–	5.63 µM	> 100 µM	1.61 µM	4.81 µM	2.78 µM	17 µM	1.19 µM	5.32 µM	5.5 µM	57.9 µM	3.3 µM	32.2 µM	19.4 µM	> 100 µM	0.0905 µM	8.96 µM
COC(=O)C1=C(C(=O)OC)C2=S(SC3=C2CCCC3)S1 (stereo unspecified)	–	93.6 µM	–	> 100 µM	–	70.1 µM	–	30.1 µM	–	97.6 µM	–	> 100 µM	–	39.8 µM	–	> 100 µM	–	–	–	40.3 µM
[N-]=[N+]=N/C1=C/CCCCC(=O)C1	–	> 100 µM	–	> 100 µM	–	–	–	> 100 µM	–	–	–	> 100 µM	–	> 100 µM	–	> 100 µM	–	–	–	> 100 µM
O=c1[nH]c2ccc(O)cc2o1	–	> 100 µM	–	> 100 µM	–	> 100 µM	–	–	–	> 100 µM	–	> 100 µM	–	> 100 µM	–	> 100 µM	–	> 100 µM	–	–
Cc1nc2cc(Nc3nc(Nc4ccc(F)cc4)nc(-c4cccs4)n3)ccc2n1Cc1ccccc1	9.62 µM	27.3 µM	–	–	3.13 µM	13.7 µM	2.07 µM	5.91 µM	3.12 µM	16.7 µM	3.62 µM	12.9 µM	3.54 µM	19 µM	2.98 µM	15.1 µM	15.8 µM	40.7 µM	–	–
O=C1c2cc3c(cc2-c2c1c1cc(Cl)c(Cl)cc1c(=O)n2C[C@H](O)CO)OCO3	0.0184 µM	0.955 µM	0.0451 µM	3.29 µM	< 0.01 µM	0.0368 µM	< 0.01 µM	0.188 µM	–	–	0.0219 µM	2.08 µM	< 0.01 µM	1.16 µM	< 0.01 µM	0.253 µM	< 0.01 µM	0.455 µM	–	–
O=C1CCC(=O)c2c1c(O)c1ccncc1c2O	–	38.2 µM	–	29.6 µM	–	64.3 µM	–	55.5 µM	–	38.9 µM	–	31.6 µM	–	25.3 µM	–	43.5 µM	–	–	–	38.1 µM
CC(=O)N1CCC(=O)/C(=C/c2ccccc2)C1	–	> 100 µM	–	> 100 µM	–	34.3 µM	–	> 100 µM	–	51.6 µM	–	46.4 µM	–	99.3 µM	–	> 100 µM	–	–	–	> 100 µM
COC12OCCN(C)C1=CC(=O)C1=NNC(C)C12 (stereo unspecified)	–	–	–	> 100 µM	–	> 100 µM	–	> 100 µM	–	> 100 µM	–	> 100 µM	–	> 100 µM	–	> 100 µM	–	–	–	> 100 µM
CCOC(=O)c1c(-c2ccc(OC)cc2)c(C#N)c2c(C#N)c(N)nn2c1N	5.65 µM	> 100 µM	7.64 µM	> 100 µM	4.19 µM	23.7 µM	2.31 µM	> 100 µM	4.01 µM	> 100 µM	3.48 µM	> 100 µM	4.27 µM	> 100 µM	5.06 µM	> 100 µM	2.65 µM	28.1 µM	–	–
CSc1ccccc1C#C/C=C\C#Cc1ccccc1N	19.4 µM	50 µM	–	–	10.3 µM	55.3 µM	2.72 µM	12.7 µM	2.92 µM	10.4 µM	–	–	35.8 µM	> 100 µM	7.58 µM	89.6 µM	3.27 µM	9.17 µM	–	–

Source: PubChem BioAssay (NCI)
